Source: patent US9802960B2 (MILLENNIUM PHARMACEUTICALS, INC., priority 2014, dated 2017)

These compounds were tested against Human VPS34 (Homo sapiens (Human), UniProt Q8NEB9) (assay: Human VPS34 enzyme assay (Adapta TR-FRET)). Details: compound concentration 1.11 μM; read-out: Percent Inhibition.
Assay type: biochemical

Sequence of Human VPS34 (Q8NEB9 whole entry): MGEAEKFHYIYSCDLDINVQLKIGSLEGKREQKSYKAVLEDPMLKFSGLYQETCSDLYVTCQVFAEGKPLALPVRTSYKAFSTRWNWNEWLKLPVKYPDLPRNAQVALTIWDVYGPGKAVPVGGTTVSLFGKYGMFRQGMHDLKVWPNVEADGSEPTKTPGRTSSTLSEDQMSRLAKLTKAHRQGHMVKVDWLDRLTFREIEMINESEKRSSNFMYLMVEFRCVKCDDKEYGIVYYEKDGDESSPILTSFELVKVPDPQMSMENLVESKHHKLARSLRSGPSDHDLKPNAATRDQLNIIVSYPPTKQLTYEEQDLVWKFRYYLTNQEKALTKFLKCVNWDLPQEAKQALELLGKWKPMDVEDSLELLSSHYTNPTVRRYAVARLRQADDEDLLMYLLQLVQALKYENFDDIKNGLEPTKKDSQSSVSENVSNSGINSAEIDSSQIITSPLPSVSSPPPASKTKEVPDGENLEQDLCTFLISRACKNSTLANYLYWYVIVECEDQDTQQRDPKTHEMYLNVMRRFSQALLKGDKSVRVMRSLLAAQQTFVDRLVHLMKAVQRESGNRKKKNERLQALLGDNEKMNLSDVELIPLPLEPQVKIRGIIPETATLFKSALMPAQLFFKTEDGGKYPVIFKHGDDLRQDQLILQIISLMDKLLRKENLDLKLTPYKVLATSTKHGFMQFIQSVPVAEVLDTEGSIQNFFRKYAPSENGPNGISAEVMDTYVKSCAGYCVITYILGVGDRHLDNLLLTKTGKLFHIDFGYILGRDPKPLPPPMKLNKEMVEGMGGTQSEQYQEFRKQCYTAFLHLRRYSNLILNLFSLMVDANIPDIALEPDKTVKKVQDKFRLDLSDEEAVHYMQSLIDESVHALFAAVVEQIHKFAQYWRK

| inhibition at 1.11 µM [%] | SMILES |
| --- | --- |
| 68 | CC(=O)Nc1cc(-c2cnc(C)c(NC(=O)c3ccc(F)cc3F)c2)ccn1 [Compound I-115, N-(2′-acetamido-6-methyl-3,4′-bipyridin-5-yl)-2,4-difluorobenzamide] |
| 68 | CC(=O)Nc1cc(-c2cnc3cn[nH]c3c2)ccn1 [Compound I-116, N-[4-(1H-pyrazolo[4,3-b]pyridin-6-yl)pyridin-2-yl]acetamide] |
| > 99 | O=C(Nc1cc(-c2cnc3[nH]ncc3c2)ccn1)C1CC1 [Compound I-117, N-[4-(1H-pyrazolo[3,4-b]pyridin-5-yl)pyridin-2-yl]cyclopropanecarboxamide] |
| > 99 | CC(=O)Nc1cc(-c2cncc(S(=O)(=O)N3CCC(F)(F)C3)c2)ccn1 [Compound I-118, N-{5-[(3,3-difluoropyrrolidin-1-yl)sulfonyl]-3,4′-bipyridin-2′-yl}acetamide] |
| > 99 | CC(=O)Nc1cc(-c2cnc(N)c(S(=O)(=O)N(C)C)c2)ccn1 [Compound I-119, N-[6-amino-5-(dimethylsulfamoyl)-3,4′-bipyridin-2′-yl]acetamide] |
| > 99 | CCN(CC)S(=O)(=O)c1cncc(-c2ccnc(NC(C)=O)c2)c1 [Compound I-120, N-[5-(diethylsulfamoyl)-3,4′-bipyridin-2′-yl]acetamide] |
| > 99 | CC(=O)Nc1cc(-c2cnc(N)c(C(=O)Nc3cc(C)cnn3)c2)ccn1 [Compound I-121, 2′-acetamido-6-amino-N-(5-methylpyridazin-3-yl)-3,4′-bipyridine-5-carboxamide] |
| > 99 | CC(=O)Nc1cc(-c2cnc(N)c(S(=O)(=O)O)c2)ccn1 [Compound I-122, 2′-acetamido-6-amino-3,4′-bipyridine-5-sulfonic acid] |
| > 99 | COc1cccc(S(=O)(=O)Nc2cc(-c3ccnc(NC(C)=O)c3)cnc2C)c1 [Compound I-123] |
| 91 | CCN(CC)S(=O)(=O)c1cc(-c2ccnc(NC(C)=O)c2)cnc1N [Compound I-124, N-[6-amino-5-(diethylsulfamoyl)-3,4′-bipyridin-2′-yl]acetamide] |
| > 99 | CC(=O)Nc1cc(-c2cnc(N)c(C(=O)N3Cc4ccccc4C3)c2)ccn1 [Compound I-125, N-[6-amino-5-(1,3-dihydro-2H-isoindoI-2-ylcarbonyl)-3,4′-bipyridin-2′-yl]acetamide] |
| > 99 | CC(=O)Nc1cc(-c2cnc(N)c(S(=O)(=O)CCc3ccccc3)c2)ccn1 [Compound I-126, N-{6-amino-5-[(2-phenylethyl)sulfonyl]-3,4′-bipyridin-2′-yl}acetamide] |
| > 99 | COc1ncc(-c2ccnc(NC(C)=O)c2)cc1C(=O)N(C)C [Compound I-127, 2′-acetamido-6-methoxy-N,N-dimethyl-3,4′-bipyridine-5-carboxamide] |
| > 99 | CC(=O)Nc1cc(-c2cnc(C)c(NS(=O)(=O)c3ccc(C)cc3Cl)c2)ccn1 [Compound I-128] |
| > 99 | CC(=O)Nc1cc(-c2cnc(C)c(NS(=O)(=O)c3ccc(C)cc3F)c2)c(C)cn1 [Compound I-130, N-(5-{[(2-fluoro-4-methylphenyl)sulfonyl]amino}-5′,6-dimethyl-3,4′-bipyridin-2′-yl)acetamide] |
| > 99 | CC(=O)Nc1cc(-c2cnc(C)c(NS(=O)(=O)c3ccc(C(C)(C)C)cc3)c2)ccn1 [Compound I-131, N-(5-{[(4-tert-butylphenyl)sulfonyl]amino}-6-methyl-3,4′-bipyridin-2′-yl)acetamide] |
| > 99 | CNc1ncc(-c2ccnc(NC(C)=O)c2)cc1N1CCCS1(=O)=O [Compound I-132, N-[5-(1,1-dioxidoisothiazolidin-2-yl)-6-(methylamino)-3,4′-bipyridin-2′-yl]acetamide] |
| > 99 | CC(=O)Nc1cc(-c2cnc(N)c(N(C)S(C)(=O)=O)c2)ccn1 [Compound I-133, N-{6-amino-5-[methyl(methylsulfonyl)amino]-3,4′-bipyridin-2′-yl}acetamide] |
| > 99 | CC(=O)Nc1cc(-c2cnc(C)c(NS(=O)(=O)c3ccc(C(C)C)cc3)c2)ccn1 [Compound I-134, N-(5-{[(4-isopropylphenyl)sulfonyl]amino}-6-methyl-3,4′-bipyridin-2′-yl)acetamide] |
| 99 | CC(=O)Nc1cc(-c2cnc3ncn(CC4CC4)c3c2)ccn1 [Compound I-135, N-{4-[1-(cyclopropylmethyl)-1H-imidazo[4,5-b]pyridin-6-yl]pyridin-2-yl}acetamide] |
| > 99 | CC(=O)Nc1cc(-c2cnc(N)c(C(=O)Nc3ccccc3Cl)c2)ccn1 [Compound I-136, 2′-acetamido-6-amino-N-(2-chlorophenyl)-3,4′-bipyridine-5-carboxamide] |
| > 99 | CC(=O)Nc1cc(-c2cncc(S(=O)(=O)N(C)C)c2)ccn1 [Compound I-137, N-[5-(dimethylsulfamoyl)-3,4′-bipyridin-2′-yl]acetamide] |

| inhibition at 1.11 µM [%] | SMILES |
| --- | --- |
| > 99 | CC(=O)Nc1cc(-c2cnc(N)c(S(=O)(=O)Cc3ccc(F)cc3F)c2)ccn1 [Compound I-138, N-{6-amino-5-[(2,4-difluorobenzyl)sulfonyl]-3,4′-bipyridin-2′-yl}acetamide] |
| 61 | CC(=O)Nc1cc(-c2cncc(N)c2)ccn1 [Compound I-139, N-(5-amino-3,4′-bipyridin-2′-yl)acetamide] |
| > 99 | CC(=O)Nc1cc(-c2cnc3[nH]ccc3c2)ccn1 [Compound I-140, N-[4-(1H-pyrrolo[2,3-b]pyridin-5-yl)pyridin-2-yl]acetamide] |
| > 99 | CNc1ncc(-c2ccnc(NC(C)=O)c2)cc1N(CC1CC1)S(C)(=O)=O [Compound I-141, N-{5-[(cyclopropylmethyl)(methylsulfonyl)amino]-6-(methylamino)-3,4′-bipyridin-2′-yl}acetamide] |
| > 99 | COc1cc(C)ccc1S(=O)(=O)Nc1cc(-c2ccnc(NC(C)=O)c2)cnc1C [Compound I-142, N-(5-{[(2-methoxy-4-methylphenyl)sulfonyl]amino}-6-methyl-3,4′-bipyridin-2′-yl)acetamide] |
| > 99 | CC(=O)Nc1cc(-c2cnc(C)c(NS(=O)(=O)c3cc(C(F)(F)F)ccc3F)c2)ccn1 [Compound I-143, N-[5-({[2-fluoro-5-(trifluoromethyl)phenyl]sulfonyl}amino)-6-methyl-3,4′-bipyridin-2′-yl]acetamide] |
| > 99 | CC(=O)Nc1cc(-c2cnc(C)c(NS(=O)(=O)c3ccccc3F)c2)ccn1 [Compound I-144, N-(5-{[(2-fluorophenyl)sulfonyl]amino}-6-methyl-3,4′-bipyridin-2′-yl)acetamide] |
| > 99 | CCOCCS(=O)(=O)c1cc(-c2ccnc(NC(C)=O)c2)cnc1N [Compound I-145, N-{6-amino-5-[(2-ethoxyethyl)sulfonyl]-3,4′-bipyridin-2′-yl}acetamide] |
| > 99 | COC(=O)Nc1cc(-c2cnc(C)c(N3CCCS3(=O)=O)c2)ccn1 [Compound I-146, methyl[5-(1,1-dioxidoisothiazolidin-2-yl)-6-methyl-3,4′-bipyridin-2′-yl]carbamate] |
| > 99 | CNc1ncc(-c2ccnc(NC(C)=O)c2)cc1N(C)S(C)(=O)=O [Compound I-147, N-{6-(methylamino)-5-[methyl(methylsulfonyl)amino]-3,4′-bipyridin-2′-yl}acetamide] |
| > 99 | CC(=O)Nc1cc(-c2cnc(N)c(S(=O)(=O)NCCc3ccccc3)c2)ccn1 [Compound I-148, N-{6-amino-5-[(2-phenylethyl)sulfamoyl]-3,4′-bipyridin-2′-yl}acetamide] |
| > 99 | CC(=O)Nc1cc(-c2cnc(N)c(C(=O)N(C)C)c2)ccn1 [Compound I-149, 2′-acetamido-6-amino-N,N-dimethyl-3,4′-bipyridine-5-carboxamide] |
| > 99 | CC(=O)Nc1cc(-c2cnc(C)c(NS(=O)(=O)c3c(F)cccc3F)c2)ccn1 [Compound I-150, N-(5-{[(2,6-difluorophenyl)sulfonyl]amino}-6-methyl-3,4′-bipyridin-2′-yl)acetamide] |
| > 99 | CC(=O)Nc1cc(-c2cnc3c(c2)c(S(=O)(=O)N2CCCC2)cn3C)ccn1 [Compound I-151, N-{4-[1-methyl-3-(pyrrolidin-1-ylsulfonyl)-1H-pyrrolo[2,3-b]pyridin-5-yl]pyridin-2-yl}acetamide] |
| > 99 | CC(=O)Nc1cc(-c2cnc(N)c(C(=O)N3CCOCC3)c2)ccn1 [Compound I-152, N-[6-amino-5-(morpholin-4-ylcarbonyl)-3,4′-bipyridin-2′-yl]acetamide] |
| > 99 | CC(=O)Nc1cc(-c2cnc(Cl)c(NS(=O)(=O)c3ccc(F)cc3F)c2C)ccn1 [Compound I-153, N-(6-chloro-5-{[(2,4-difluorophenyl)sulfonyl]amino}-4-methyl-3,4′-bipyridin-2′-yl)acetamide] |
| > 99 | CC(=O)Nc1cc(-c2cnc(C)c(NS(=O)(=O)c3ccc(Cl)cc3)c2)ccn1 [Compound I-154, N-(5-{[(4-chlorophenyl)sulfonyl]amino}-6-methyl-3,4′-bipyridin-2′-yl)acetamide] |
| > 99 | CC(=O)Nc1cc(-c2cnc(C)c(NS(=O)(=O)c3cccc(F)c3)c2)ccn1 [Compound I-155, N-(5-{[(3-fluorophenyl)sulfonyl]amino}-6-methyl-3,4′-bipyridin-2′-yl)acetamide] |
| > 99 | CC(=O)Nc1cc(-c2cnc(N)c(S(=O)(=O)N3CCCCC3)c2)ccn1 [Compound I-156, N-[6-amino-5-(piperidin-1-ylsulfonyl)-3,4′-bipyridin-2′-yl]acetamide] |
| > 99 | CC(=O)Nc1cc(-c2cnc(N)c(C(=O)N3CC[C@@H](F)C3)c2)ccn1 [Compound I-157, N-(6-amino-5-{[(3R)-3-fluoropyrrolidin-1-yl]carbonyl}-3,4′-bipyridin-2′-yl)acetamide] |
| > 99 | CC(=O)Nc1cc(-c2cnc3[nH]cc(S(=O)(=O)N4CCCC4)c3c2)ccn1 [Compound I-158, N-{4-[3-(pyrrolidin-1-ylsulfonyl)-1H-pyrrolo[2,3-b]pyridin-5-yl]pyridin-2-yl}acetamide] |
